Data from ChEMBL document CHEMBL4002643, “Tubulin-binding dibenz[c,e]oxepines: Part 2. Structural variation and biological evaluation as tumour vasculature disrupting agents” (Bioorg Med Chem, 2017).
The source made the active and inactive calls. The rule behind the calls is not given here.

What was measured:
K562 [1] = experiment: Cytotoxicity against human K562 cells assessed as growth inhibition after 5 days by MTT assay; assay type: functional, cell-based; conditions: K562, 120 h
K562 [2] = experiment: Cytotoxicity against human K562 cells assessed as growth inhibition after 48 hrs by SRB assay; assay type: functional; conditions: K562, 48 h
HOP-92 = experiment: Cytotoxicity against human HOP92 cells assessed as growth inhibition after 48 hrs by SRB assay; assay type: functional; conditions: HOP-92, 48 h
NCI-H322M = experiment: Cytotoxicity against human NCI-H322M cells assessed as growth inhibition after 48 hrs by SRB assay; assay type: functional
SW-620 = experiment: Cytotoxicity against human SW620 cells assessed as growth inhibition after 48 hrs by SRB assay; assay type: functional; conditions: SW-620, 48 h
SK-MEL-2 = experiment: Cytotoxicity against human SK-MEL-2 cells assessed as growth inhibition after 48 hrs by SRB assay; assay type: functional; conditions: SK-MEL-2, 48 h
NCI/ADR-RES = experiment: Cytotoxicity against human NCI-ADR-RES cells assessed as growth inhibition after 48 hrs by SRB assay; assay type: functional
OVCAR-8 = experiment: Cytotoxicity against human OVCAR8 cells assessed as growth inhibition after 48 hrs by SRB assay; assay type: functional; conditions: OVCAR-8, 48 h
A498 = experiment: Cytotoxicity against human A498 cells assessed as growth inhibition after 48 hrs by SRB assay; assay type: functional; conditions: A498, 48 h
TK-10 = experiment: Cytotoxicity against human TK10 cells assessed as growth inhibition after 48 hrs by SRB assay; assay type: functional; conditions: TK-10, 48 h
DU-145 = experiment: Cytotoxicity against human DU145 cells assessed as growth inhibition after 48 hrs by SRB assay; assay type: functional; conditions: DU-145, 48 h
Calu-6 [3] = experiment: Antitumor activity against human Calu6 cells xenografted in nu/nu CBA mouse assessed as tumor growth inhibition at 67.5 to 135 mg/kg, ip administered on day 1 and 5 measured on day 2 and 6 post dose; assay type: functional, organism-based
Calu-6 [4] = experiment: Antitumor activity against human Calu6 cells xenografted in nu/nu CBA mouse assessed as tumor growth inhibition at 67.5 to 135 mg/kg, ip administered on day 1 and 5 measured on day 3 to 4 and day 7 to 16 post dose; assay type: functional, organism-based
Mus musculus [5] = experiment: Toxicity in human Calu6 cells xenografted nu/nu CBA mouse assessed as change in body weight at 67.5 to 135 mg/kg, ip administered on day 1 and 5 measured daily over 12 days; assay type: organism-based; conditions: in vivo, 288 h
EKVX = experiment: Cytotoxicity against human EKVX cells assessed as growth inhibition after 48 hrs by SRB assay; assay type: functional
Malme-3M = experiment: Cytotoxicity against human MALME-3M cells assessed as growth inhibition after 48 hrs by SRB assay; assay type: functional
DLD-1 [6] = experiment: Induction of vascular shutdown in human DLD1 cells xenografted in Balb/C immunodeficient nude mouse at 400 mg/kg, iv by […] dye-based microscopic method; assay type: functional, organism-based; conditions: TDE = time-dependent effect
DLD-1 [7] = experiment: Induction of vascular shutdown in human DLD1 cells xenografted in Balb/C immunodeficient nude mouse assessed as vascular element counts at 400 mg/kg, iv at 1 hr post dose by […] dye-based microscopic method (reference value: 3.73 +/- 3.1%); assay type: functional
DLD-1 [8] = experiment: Induction of vascular shutdown in human DLD1 cells xenografted in Balb/C immunodeficient nude mouse assessed as vascular element counts at 400 mg/kg, iv at 4 hrs post dose by […] dye-based microscopic method (reference value: 3.73 +/- 3.1%); assay type: functional
DLD-1 [9] = experiment: Induction of vascular shutdown in human DLD1 cells xenografted in Balb/C immunodeficient nude mouse assessed as vascular element counts at 400 mg/kg, iv at 24 hrs post dose by […] dye-based microscopic method (reference value: 3.73 +/- 3.1%); assay type: functional
DLD-1 [10] = experiment: Vascular disrupting activity in human DLD1 cells xenografted in Balb/C immunodeficient nude mouse assessed as induction of necrosis by measuring necrotic area at 400 mg/kg, iv at 1 hr post dose by haematoxylin and eosin staining-based assay (reference value: 19 +/- 9.6%); assay type: functional
DLD-1 [11] = experiment: Vascular disrupting activity in human DLD1 cells xenografted in Balb/C immunodeficient nude mouse assessed as induction of necrosis by measuring necrotic area at 400 mg/kg, iv at 4 hrs post dose by haematoxylin and eosin staining-based assay (reference value: 19 +/- 9.6%); assay type: functional
DLD-1 [12] = experiment: Vascular disrupting activity in human DLD1 cells xenografted in Balb/C immunodeficient nude mouse assessed as induction of necrosis by measuring necrotic area at 400 mg/kg, iv at 24 hrs post dose by haematoxylin and eosin staining-based assay (reference value: 19 +/- 9.6%); assay type: functional
Mus musculus [13] = experiment: Toxicity in human DLD1 cells xenografted Balb/C immunodeficient nude mouse assessed as body weight loss at 200 to 400 mg/kg, iv administered day 2 and 4 measured 14 days post dose; assay type: organism-based; conditions: in vivo, 336 h

| Compound | IC50 (K562 [1]) [µM] | GI50 (K562 [2]) [µM] | GI50 (HOP-92) [µM] | GI50 (NCI-H322M) [µM] | GI50 (SW-620) [µM] | GI50 (SK-MEL-2) [µM] | GI50 (NCI/ADR-RES) [µM] | GI50 (OVCAR-8) [µM] | GI50 (A498) [µM] | GI50 (TK-10) [µM] | GI50 (DU-145) [µM] | GI50 (EKVX) [µM] | GI50 (Malme-3M) [µM] | further results |
| --- | --- | --- | --- | --- | --- | --- | --- | --- | --- | --- | --- | --- | --- | --- |
| COc1ccc2c(c1O)COCc1cc(OC)c(OC)c(OC)c1-2 | 34 | 0.04 | 0.59 | 0.52 | 0.05 | 0.26 | 0.05 | 0.2 | 3.02 | > 100 | 0.06 |  |  | TGI (Calu-6 [3]): Active; TGI (Calu-6 [4]): inactive; Activity (Mus musculus [5]): Non-Toxic |
| COc1ccc2c(c1OP(=O)([O-])[O-])COCc1cc(OC)c(OC)c(OC)c1-2.[Na+].[Na+] | 0.23 | 0.28 |  | 1.32 | 0.4 | 5.37 | 0.28 | 0.42 | 18.6 |  | 0.39 | 0.68 | 2.51 | Activity (DLD-1 [6]): Tde; Activity (DLD-1 [7]): 0.33%; Activity (DLD-1 [8]): 1.96%; Activity (DLD-1 [9]): 0.95%; Activity (DLD-1 [10]): 27.1%; Activity (DLD-1 [11]): 26%; Activity (DLD-1 [12]): 74.1%; Activity (Mus musculus [13]): Non-Toxic |
| COc1ccc2c(c1)COCc1cc(OC)c(OC)c(OC)c1-2 | 110 | 0.04 | > 100 | 2.04 | 0.05 | 0.1 | 0.07 | 0.31 | 0.17 | > 100 | 0.18 | 0.6 | > 100 |  |
